Experimental data taken from US20260355168A1, “COMPOSITIONS AND METHODS FOR TREATING AND DETECTING CANCER” (CASE WESTERN RESERVE UNIVERSITY, priority 2022, published 2026).
Entries after “also recorded” stand apart in the source; their conditions may differ.

Tests used:
LN229 cells [1] = assay: LN229 glioma sphere formation and growth assay; type: cell-based, human; conditions: 100 μM, in words; for Effect on LN229 sphere formation: day 1; for Effect on LN229 sphere growth: day 7
Procedure: FIGS. 5(A-E) illustrate a histogram and images showing the results of the LN229 sphere formation and growth assays. Selected inhibitors, activators, and control compounds identified in LN229 and/or U87 scratch wound closure assays were retested at 100 μM in a secondary assay for glioma cell (LN229) sphere formation and growth. A. Histogram showing the effects of the indicated compounds on sphere formation. On day 1, sphere footprint areas were determined and normalized to the average footprint area of the unblinded vehicle-treated controls. On day 1, a larger footprint area indicates inhibition of aggregation. B. Histogram showing the effects of the indicated compounds on sphere growth. On day 7, the changes in sphere footprint areas were calculated and normalized to the average size change of the unblinded vehicle-treated controls. On day 7, a smaller value indicates reduced growth. […] Data is presented as percentages±s.e.m. of 2-4 replicates. Representative images of samples treated with DMSO (C) and two priority inhibitors (D and E) are shown. Relative day 1 footprint areas and day 7 growth measurements are indicated for each example.
FIGS. 15(A-D) illustrate a histogram and images of titration of selected compounds on LN229 sphere formation and growth. LN229 cells were plated onto non-adherent surfaces and treated with the indicated compounds at 100, 50, and 25 μM. A. On day 1, sphere footprint areas were determined and normalized to the average footprint area of the unblinded vehicle-treated controls. On day 1, a larger foot-print area indicates inhibition of aggregation. B. On day 7, the changes in sphere footprint areas were calculated and normalized to the average size change of the unblinded vehicle-treated controls. On day 7, a smaller value indicates reduced growth. […] Data is presented as percentages±s.e.m. The initial test at 100 μM and the follow-up at that dose with titration is shown. Each bar is the average of 2 replicates. Representative day 1 (C) and day 7 (D) images of samples treated with two priority inhibitors are shown. Relative day 1 sphere footprint areas and day 7 growth for each example are indicated.
(§1) Cells were seeded at a density of 7500 cells per well into the internal wells of 96-well plates coated with 0.75% (wt/vol) PVA as previously described. Compounds were added (2×replicates per treatment) at the indicated final concentrations, and control wells were treated with matching concentrations of DMSO. The external wells of the plates were filled with PBS to buffer against edge effects, and the cells were incubated at 37 °C and 5% CO2 for 7 days. A Leica CTR6500 microscope fitted with an automated stage was used to capture brightfield images on day 1 and day 7, and sphere footprint areas were measured using Image J (v1.52a http://imagej.nih.gov/ij) as previously described. To quantify the effects of the compounds on day 1, the footprint areas of the treated wells were normalized to the average area of the matched DMSO control wells. To quantify the effects of the compounds on sphere growth, the change in the sphere footprint areas was calculated ([…]) and then normalized to the average size change of the matched DMSO samples. All values are presented as average percentages±s.e.m.
We tested the effects of twenty-four compounds (11 flagged as inhibitory, 4 as stimulatory, and nine as inert in the initial scratch-wound screen, FIG. 2) on the ability of LN229 cells to mediate cell-cell adhesion and grow in 3D culture on non-adherent surfaces. To quantify sphere formation (FIG. 5A), the footprint areas of aggregates were measured on day 1 and normalized to that of the DMSO control. At this time point, a larger footprint size (>120%) indicates inhibition, i.e., the failure of cells to form a compact aggregate. To quantify sphere growth (FIG. 5B), we calculated the percent changes in sphere footprint areas between day 1 and day 7 and normalized them to that of the DMSO controls.

LN229 cells [2] = assay: LN229 scratch wound healing assay; type: cell-based, human; conditions: for activity at 100 µM: Homo sapiens, LN-229, normalized to DMSO controls, read-out: LN229 scratch wound closure relative to DMSO controls
Excerpt: FIGS. 3(A-D) illustrate a histogram and images of the LN229 scratch wound assays. A. Histogram showing the effects of all soluble wedge-targeted compounds on LN229 scratch wound closure. Cell movement into the scratches was quantified from scratch wound widths at the start and end of the assay and normalized to the average movement of cells in the unblinded DMSO control samples. Data is presented as average percentages±standard error of the means (s.e.m.), and compound bar codes are shown on the x-axis. The majority of compounds were screened with an n=2. Some priority compounds were screened with 3-6 replicates. Representative endpoint images of samples treated with DMSO (B) and two priority inhibitors (C and D) are shown. The relative migration distances for each example are indicated.
(§2) Cells were seeded at a density of 2.7×10^4 cells per well into the internal wells of Incuyte1 Imagelock 96-well plates (Essen BioScience Inc., Ann Arbor, MI) and cultured overnight to form monolayers. Monolayers were wounded with an IncuCyte1 96-well Woundmaker Tool per the manufacturer's instructions. The outer wells were filled with PBS to buffer edge effects, and then the wounded monolayers were cultured in 100 μl of fresh media with compounds or DMSO (2×replicates at 100 μM or 1%, respectively) at 37 °C and 5% CO2. Images were captured every 4 hrs. using an Incucyte live cell imaging system equipped with the Scratch Wound Module. Scratch wound widths were calculated, per the manufacturer's instructions, at TO and at endpoint (typically T12 for LN229 and U87 cells and T8 for Gli36), which was taken as the last timepoint before wound closure. The cell migration distance was calculated from scratch widths [(T0Width−TendpointWidth)/2] and normalized to the average distance migrated by the DMSO controls. Values are presented as average percentages±standard errors of the means (s.e.m.). The majority of compounds were screened with an n of two, but the n for priority hits ranges from 2-6.
Scratch assays measure the ability of cells to migrate into a wound and close it creating a monolayer.

U87 cells = assay: U87 scratch wound healing assay; type: cell-based, human; conditions: 100 μM
Excerpt: FIGS. 11(A-D) illustrate a histogram and images of the results of the U87 scratch wound assays. A. Histogram showing the effects of all soluble wedge pocket-targeting compounds on U87 scratch wound closure. Cell movement into the scratches was quantified from scratch wound widths at the start and end of the assay and normalized to the average movement of cells in the unblinded DMSO control samples. Data is presented as average percentages±s.e.m., and compound bar codes are shown on the x-axis. Most compounds were screened with an n of 2-4. Representative images of scratch wounds treated with DMSO (A) or two priority inhibitors (C and D) are shown.
as §2

glioma cells = assay: Glioma cell assays combined (scratch and sphere, several cell lines); type: cell-based, human; conditions: 100 μM; for Effect on glioma cells, overall: multiple assays and cell lines
Procedure: FIG. 2 illustrates a schematic of a functional screening approach. Seventy-four PTPμ wedge-targeted compounds and 2 blinded DMSO samples were received from Atomwise and screened at 100 μM in scratch wound healing assays using two glioma cell lines (LN229 and U87). Selected active and control compounds were taken into secondary assays (Gli36 scratch and LN229 and Gli36 sphere formation and growth assays). Inhibitors selected as being active in primary and secondary screens were tested for effects on the survival of LN229 and Sf9 cells, and selected glioma-cell inhibitors and activators were screened for effects on Sf9-PTPμ aggregation, a highly specific test for PTPμ function.
as §2, §1

PTPμ = PTPμ (Homo sapiens, UniProt P28827); assay: PTPμ-dependent Sf9 aggregation assay; type: cell-based; conditions: 100 μM; 20 min pretreatment; in words
Sequence of PTPμ (P28827 21-1452): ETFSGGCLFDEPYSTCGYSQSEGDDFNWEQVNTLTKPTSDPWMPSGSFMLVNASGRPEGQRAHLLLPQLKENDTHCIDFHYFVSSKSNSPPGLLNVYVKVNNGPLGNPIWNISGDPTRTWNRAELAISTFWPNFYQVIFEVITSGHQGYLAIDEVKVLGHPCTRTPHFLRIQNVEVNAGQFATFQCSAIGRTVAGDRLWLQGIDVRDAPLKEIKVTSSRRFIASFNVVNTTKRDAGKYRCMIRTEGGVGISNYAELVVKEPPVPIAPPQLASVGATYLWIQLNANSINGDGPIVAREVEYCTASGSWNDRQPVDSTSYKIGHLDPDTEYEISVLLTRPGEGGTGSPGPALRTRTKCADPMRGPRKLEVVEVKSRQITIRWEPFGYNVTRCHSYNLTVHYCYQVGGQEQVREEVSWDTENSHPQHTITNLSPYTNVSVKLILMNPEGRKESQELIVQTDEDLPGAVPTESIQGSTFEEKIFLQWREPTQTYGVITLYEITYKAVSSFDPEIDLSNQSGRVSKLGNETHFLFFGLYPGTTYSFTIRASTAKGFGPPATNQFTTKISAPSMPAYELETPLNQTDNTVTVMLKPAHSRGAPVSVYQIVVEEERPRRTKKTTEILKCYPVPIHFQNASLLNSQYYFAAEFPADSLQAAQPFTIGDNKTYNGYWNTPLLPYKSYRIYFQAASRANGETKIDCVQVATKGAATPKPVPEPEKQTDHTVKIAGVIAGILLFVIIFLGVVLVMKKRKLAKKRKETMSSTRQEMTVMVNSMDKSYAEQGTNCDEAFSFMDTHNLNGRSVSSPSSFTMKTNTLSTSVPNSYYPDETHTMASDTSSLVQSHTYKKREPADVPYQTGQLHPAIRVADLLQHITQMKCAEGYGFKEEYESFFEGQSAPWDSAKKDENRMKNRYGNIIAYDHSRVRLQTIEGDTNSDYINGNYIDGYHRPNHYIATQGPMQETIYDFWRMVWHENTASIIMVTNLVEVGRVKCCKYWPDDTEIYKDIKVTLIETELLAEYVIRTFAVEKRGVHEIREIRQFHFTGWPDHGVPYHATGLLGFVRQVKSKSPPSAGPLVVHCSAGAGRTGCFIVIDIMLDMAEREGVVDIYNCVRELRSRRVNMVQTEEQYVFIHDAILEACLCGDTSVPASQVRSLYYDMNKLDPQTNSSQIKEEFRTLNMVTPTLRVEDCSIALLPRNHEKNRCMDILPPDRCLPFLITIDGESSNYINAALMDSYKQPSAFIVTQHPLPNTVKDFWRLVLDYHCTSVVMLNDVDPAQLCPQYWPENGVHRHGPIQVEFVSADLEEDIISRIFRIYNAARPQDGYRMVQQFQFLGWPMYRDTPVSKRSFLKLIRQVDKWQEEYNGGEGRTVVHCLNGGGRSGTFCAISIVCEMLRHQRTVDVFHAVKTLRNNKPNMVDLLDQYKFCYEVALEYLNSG

LN229 cells [3] = assay: Helix Blue staining of LN229 spheres (cell survival); type: cell-based, human; conditions: 100 μM, 24 h, qualitative
Procedure: (§3) FIG. 17 illustrates images showing the effects of prioritized inhibitors on cell survival. LN229 cells were plated onto non-adherent surfaces and cultured in the presence of the indicated compounds (100 μM). On day 1, spheres were stained with Helix Blue to detect dying cells. Parental Sf9 cells (which lack PTPμ) plated onto tissue culture plastic were also grown in the presence of the indicated compounds and, on day 1, stained with Helix Blue. Three compounds appeared to cause a qualitative increase in staining in LN229 spheres. No compound was toxic to Sf9 cells.
(§4) LN229 cells, plated onto non-adherent surfaces as described above, and parental Sf9 cells (without PTPμ), seeded into 96-well flat bottom tissue culture plates, were treated for 24 h with the indicated compounds (100 μM). The cells and spheres were then treated with 5.5 μM Helix Blue (Biolegend, San Diego, CA) and imaged at 10× on a Leica CTR6500 fluorescence microscope.
(§5) The seven penetrant inhibitors were tested to see if they affected the survival of LN229 spheres and parental Sf9 cells (which lack PTPμ) (FIG. 17).

parental Sf9 cells = assay: Helix Blue staining of parental Sf9 cells (cell survival); type: cell-based, insect; conditions: 100 μM, 24 h, cells lack PTPμ
Procedure: as §3, §4, §5

SMILES	Effect on LN229 sphere formation (LN229 cells [1])	Effect on LN229 sphere growth (LN229 cells [1])	activity at 100 µM (LN229 cells [2]) [%]	Effect on U87 cell morphology in scratch assay (U87 cells)	Effect on glioma cells, overall (glioma cells)	Effect on PTPμ-dependent Sf9 aggregation / adhesion (PTPμ)	Effect on glioma cell migration (glioma cells; scratch assays)	Effect on LN229 cell survival / cell death (LN229 cells [3])	Effect on parental Sf9 cell survival (parental Sf9 cells)	Effect on LN229 cell morphology in scratch assay (LN229 cells [2]; 100 μM)
CC(C)COc1ccc(C(=O)N2CCNC(=O)C2CC(=O)OC2CCCCC2)cc1 (centres unmarked) [Compound 247682240]	delayed sphere formation	inhibited growth	< 60	pile-up of U87 cells at the edge of the scratch wound	highly penetrant inhibitors	not shown to affect PTPμ-mediated aggregation				
CCC1(CC)NC(=O)N(CC(=O)Nc2ccc(Oc3ccccc3)cc2)C1=O [Compound 247682206]	delayed sphere formation	inhibited growth	< 60	pile-up of U87 cells at the edge of the scratch wound	highly penetrant inhibitors; also recorded: able to inhibit glioma cells	PTPμ-dependent adhesion; also recorded: affect PTPμ-mediated aggregation	able to inhibit glioma cell migration			
COc1ccccc1CNC(=O)CC(NC(N)=O)c1cccc(Oc2ccccc2)c1 (centres unmarked) [Compound 247679045]	completely blocked sphere formation		< 60		highly penetrant inhibitors in glioma cell assays	not shown to affect PTPμ-mediated aggregation; also recorded: did not affect PTPμ-dependent adhesion		caused a qualitative increase in LN229-cell death	did not affect parental Sf9 cells	
O=C1NC2(CCCC2)C(=O)N1CC(=O)N(Cc1cccs1)c1ccc2c(c1)OCCO2 [Compound 247679515]	completely blocked sphere formation		< 60		highly penetrant inhibitors in glioma cell assays	not shown to affect PTPμ-mediated aggregation; also recorded: did not affect PTPμ-dependent adhesion				rounding
Cc1cccc(-c2ccc3c(c2)C(=O)N2CCC(NC(=O)COCC(=O)O)C2C(=O)N3)c1C (centres unmarked) [Compound 247685429]					did not affect glioma cells	able to inhibit PTPμ-dependent adhesion; also recorded: able to inhibit PTPμ-mediated aggregation				
